How the values were obtained:
[1] = Metabolite analysis in brain; type: in vivo, ddY mouse; conditions: mouse brain, 2 min after i.v. administration
Experimental: A 5-week-old male ddY mouse was used as a normal mouse. [^123I]BIP-3 obtained by the method shown in Example 10, which was contained in saline containing 0.1 vol % Tween 80 and 10 vol % ethanol, was administered from the tail vein (3.70 MBq, […]). After 2 minutes, the mouse was slaughtered, and the brain was excised, homogenized in methanol (2.00 mL) and TBS (2.00 mL), and centrifuged at 4000×g at 4° C. for 10 minutes, followed by the collection of a supernatant. The obtained supernatant was passed through Cosmonice Filter (S) (0.45 μm, 4 mm) (Nacalai Tesque, Inc.) and analyzed by reverse phase HPLC. Analytical conditions for HPLC were the same as the conditions used in Example 9.

[2] = Metabolite analysis in blood; type: in vivo, ddY mouse; conditions: i.v.; for Proportion of parent compound in blood: mouse plasma, mean±SD n=3
Experimental: A 5-week-old male ddY mouse was used as a normal mouse. [^123I]BIP-3 obtained by the method shown in Example 10, which was contained in saline containing 0.1 vol % Tween 80 and 10 vol % ethanol, was administered from the tail vein (3.70 MBq, 100 μL). 2 minutes, 10 minutes, or 30 minutes after administration, the mouse was slaughtered, and blood was collected into a test tube with an inner wall coated with Heparin Sodium Injection (manufactured by Nipro Pharma Corp.). After radioactivity measurement, the blood was centrifuged at 4000×g at 4° C. for 5 minutes and separated into plasma and cell components. To the obtained plasma, a 2-fold volume of methanol was added for protein denaturation, and the mixture was centrifuged at 4000×g at 4° C. for 5 minutes. The obtained supernatant was passed through Cosmonice Filter (S) (0.45 μm, 4 mm) (Nacalai Tesque, Inc.) and analyzed by reverse phase HPLC. Analytical conditions for HPLC were the same as the conditions used in Example 9.

[123I]c1ccc2c(c1)nc1ccccn12 [[^123I]BIP-3, 7-[^123I]iodobenzo[4,5]imidazo[1,2-a]pyridine]
metabolite analysis of brain homogenates (reverse phase HPLC) [1]: only the signal peak of the parent compound was detected | Proportion of parent compound in blood ([2]; 2 min after administration): 83.1 ± 7.7 | Proportion of parent compound in blood ([2]; 10 min after administration): 23.6 ± 2.2 | Proportion of parent compound in blood ([2]; 30 min after administration): 8.4 ± 1.1 | metabolite formation in blood ([2]; mouse, HPLC of plasma): forms a highly water-soluble metabolite

From US10080812B2, “Radioactive iodine labeled pyrido[1,2-a]benzoimidazole derivative compound” (priority 2015, dated 2018)
